# Laboratory results from patent US11370841B2, “Methods of treating fibroblast growth factor 19-mediated cancers and tumors” (NGM Biopharmaceuticals, Inc., priority 2016, dated 2022).
# B1: IL-6: mouse IL-6 (Peprotech), positive control for pSTAT3 activation (protein, UniProt P08505 25-211, looked up)
# Interleukin-6: FPTSQVRRGDFTEDTTPNRPVYTTSQVGGLITHVLWEIVEMRKELCNGNSDCMNNDDALAENNLKLPEIQRNDGCYQTGYNQEICLLKISSGLLEYHSYLEYMKNNLKDNKKDKARVLQRDTETLIHIFNQEVKDLHKIVLPTPISNALLTDKLESQKEWLRTKTIQFILKSLEEFLKVTLRSTRQT
# B2: HGF: recombinant hepatocyte growth factor (Peprotech), positive control for BrdU incorporation (protein, UniProt Q08048 33-495; Q08048 496-728, looked up)
# Hepatocyte growth factor …: QKKRRNTLHEFKKSAKTTLTKEDPLLKIKTKKVNSADECANRCIRNRGFTFTCKAFVFDKSRKRCYWYPFNSMSSGVKKGFGHEFDLYENKDYIRNCIIGKGGSYKGTVSITKSGIKCQPWNSMIPHEHSFLPSSYRGKDLQENYCRNPRGEEGGPWCFTSNPEVRYEVCDIPQCSEVECMTCNGESYRGPMDHTESGKTCQRWDQQTPHRHKFLPERYPDKGFDDNYCRNPDGKPRPWCYTLDPDTPWEYCAIKTCAHSAVNETDVPMETTECIQGQGEGYRGTSNTIWNGIPCQRWDSQYPHKHDITPENFKCKDLRENYCRNPDGAESPWCFTTDPNIRVGYCSQIPKCDVSSGQDCYRGNGKNYMGNLSKTRSGLTCSMWDKNMEDLHRHIFWEPDASKLNKNYCRNPDDDAHGPWCYTGNPLIPWDYCPISRCEGDTTPTIVNLDHPVISCAKTKQLR
# Hepatocyte growth factor beta …: VVNGIPTQTTVGWMVSLKYRNKHICGGSLIKESWVLTARQCFPARNKDLKDYEAWLGIHDVHERGEEKRKQILNISQLVYGPEGSDLVLLKLARPAILDNFVSTIDLPSYGCTIPEKTTCSIYGWGYTGLINADGLLRVAHLYIMGNEKCSQHHQGKVTLNESELCAGAEKIGSGPCEGDYGGPLICEQHKMRMVLGVIVPGRGCAIPNRPGIFVRVAYYAKWIHKVILTYKL
# How the values were obtained:
# FGF19-mediated HCC = assay: Tumorigenicity study in db/db mice (AAV-SOCS3, tofacitinib); format: in vivo
# Description: Blood parameters. Blood was collected from tail vein in un-anesthetized animals using microvette serum gel tubes (Sarstedt) for measurements of glucose, insulin, ALT, AST, ALP, bile acids, and FGF19 concentrations. Serum samples were prepared by centrifugation at 4° C. for 10 minutes at 6000 g after clotting at room temperature for 30 minutes. For HbA1c measurements, whole blood was collected after euthanasia by cardiac puncture into EDTA-tubes and quickly inverted multiple times. HbA1c (from whole blood samples) and liver enzyme (from serum samples) levels were measured on Cobas Integra 400 Clinical Analyzer (Roche Diagnostics). Serum FGF19 level was determined by FGF19 enzyme-linked immunosorbent assays (ELISA) (Biovendor). Serum insulin was assessed with ELISA kits from ALPCO. Concentrations of total bile acids in serum were determined using a 3β-hydroxysteroid dehydrogenase method (Diazyme). All assays were performed according to the manufacturers' instructions.
# Histology and immunohistochemistry. Livers were fixed in 10% neutral-buffered formalin and embedded in paraffin. 5 μm sections were deparaffinized in xylenes, rehydrated sequentially in graded ethanol (100%, 95%, 80%, 70%, 50%, 2 minutes each). Hematoxylin and eosin staining was performed using standard methods. For immunohistochemical studies, liver sections were subjected to antigen retrieval in a citrate-based Antigen Unmasking Solution (Vector Laboratories), and incubated for 30 minutes with 3% H2O2 at room temperature to block endogenous peroxidase activity. Sections were stained with primary antibodies against glutamine synthetase (Thermo Fisher), BrdU, PCNA, or STAT3 in PBS containing 10% goat serum. Biotinylated secondary antibodies, ABC-HRP reagent (Vectastain ABC kit, #PK-6100, Vector Laboratories) and di-amine-benzidine (DAB) colorimetric peroxidase substrate (#SK-4100, Vector Laboratories) were used for detection. When indicated, sections were counterstained with hematoxylin. Digital imaging microscopy was performed using a Leica DM4000 microscope equipped with DFC500 camera and a scanning platform (Leica). Images for the entire liver section were acquired by stitching 70-96 fields together using Surveyor program for morphometric analysis. Glutamine synthetase-positive tumor areas were quantified using Measure/Count/Area tool from ImagePro software.
# Tumorigenicity study in db/db mice. 11 to 12 week old db/db mice received a single intravenous dose of AAV containing either FGF19 or a control gene (green fluorescent protein). Body weight and blood glucose were monitored. […] Mice were euthanized 24 weeks post-AAV administration and examined for liver tumor formation by gross appearance and histology.
# [1] = system: primary mouse hepatocytes; assay: In vitro pSTAT3 activation in primary mouse hepatocytes; format: cell-based; settings: isolated mouse hepatocytes, 50 ng/ml
# Description: Primary mouse hepatocytes were isolated from 8-10 week old wild type mice (BioReclamation/IVT). Cells were diluted in attachment media, and cells were plated on collagen-coated 6-well plate (Becton Dickinson). Four hours later, cells were changed into M199 media supplemented with 10% FBS, 2 mM glutamine, 100 unit/ml penicillin, 100 unit/ml streptomycin, and cultured for 16 hours at 37° C. When indicated, 50 ng/ml FGF19 protein or 50 ng/ml mouse IL-6 (Peprotech) were added.
# Cell extracts were prepared in 50 mM Tris-Cl, PH 7.2, 150 mM NaCl, 1% NP-40, 0.1% SDS, 0.5% sodium deoxycholate supplemented with a protease inhibitor cocktail (Roche) and phosphatase inhibitors (Sigma, phosphatase inhibitor cocktail set 2 and set 3), and protein concentrations were determined by BCA protein assay (Thermo Scientific).
# Immunoblotting. Cell or tissue lysates were mixed with 4×SDS sample loading buffer (50 mM Tris-Cl, pH6.8, 2.5% SDS, urea, 4% β-mercaptoethanol), heated for 10 minutes at 95° C., and separated on 4-20% SDS-polyacrylamide gels (Life Technologies) in 1×MOPS running buffer. Proteins were transferred onto PVDF membranes (GE Healthcare). Membranes were blocked in TBST buffer (20 mM Tris-Cl, pH 7.6, 137 mM NaCl, 0.1% Tween-20) containing 5% non-fat dry milk for 1 hour at room temperature, and incubated with anti-pSTAT3^Y705, anti-total STAT3, anti-pERK, anti-total ERK, or anti-β-actin antibodies in blocking buffer at 4° C. overnight. Membranes were washed in TBST extensively, and bound proteins were detected with horseradish peroxidase-conjugated goat-anti-mouse IgG or goat-anti-rabbit IgG antibodies (GE Healthcare) for 1 hour at room temperature. […]
# To investigate an in vitro direct effect of FGF19 on STAT3 activation in isolated hepatocytes, pSTAT3^Y705 levels in primary cultures of hepatocytes upon FGF19 stimulation were analyzed by western blotting. […] Cell lysates were prepared at the indicated time points following FGF19 stimulation and analyzed for phosphorylation of the various proteins.
# [2] = system: primary mouse hepatocytes; assay: In vitro BrdU incorporation in primary mouse hepatocytes; format: cell-based; settings: 48 hours incubation
# Description: FIGS. 2A-2E depict non-cell autonomous promotion of hepatocellular proliferation by FGF19. 11 week old mice (n=5 per group) were implanted with osmotic pumps releasing BrdU (8.5 mg/kg/day) and FGF19 protein (0.4 mg/kg/day). Livers were harvested 6 days post-implant. (FIG. 2A) Flow cytometry analysis of BrdU-labeled livers is shown. Representative histograms from hepatocytes stained with 7-ADD and anti-BrdU-APC are shown. (FIG. 2B) BrdU-positive hepatocytes as a percentage of total hepatocytes from vehicle (V)-treated (n=5) or FGF19-treated (n=5) mice were quantified by flow cytometry. (FIG. 2C) Shown are circulating FGF19 levels on day 6 post-implant of osmotic pumps. (FIG. 2D) Lack of proliferative effects of FGF19 on primary mouse hepatocytes. Primary cultures of hepatocytes isolated from mouse liver were incubated with recombinant FGF19 protein at the indicated concentrations for 48 hours and BrdU was added during the last 20 hours of incubation. BrdU incorporation was determined using a luminescence method. Mouse hepatocyte growth factor (mHGF) was included as a positive control. RLU, relative luminescence unit. (FIG. 2E) Lack of proliferative effects of FGF19 on primary human hepatocytes. Primary cultures of hepatocytes isolated from human liver were incubated with recombinant FGF19 protein. Human hepatocyte growth factor (hHGF) was included as a positive control. […]
# [3] = diet with 0.01% tofacitinib from 4 weeks after AAV-FGF19, 20 weeks
molecule,measurement,setting,value
C[C@@H]1CCN(C(=O)CC#N)C[C@@H]1N(C)c1ncnc2[nH]ccc12 [tofacitinib],Average tumor load,FGF19-mediated HCC; [3],reduced
same,Number of macroscopically detectable tumors,FGF19-mediated HCC; [3],reduced
same,FGF19's effect on normalizing blood levels of HbA1c,FGF19-mediated HCC; tofacitinib in diet,no impact
same,FGF19's effect on normalizing blood levels of bile acids,FGF19-mediated HCC; tofacitinib in diet,no impact
same,FGF19's effect on normalizing blood levels of glucose,FGF19-mediated HCC; tofacitinib in diet,no impact
same,FGF19-induced liver tumor formation,"FGF19-mediated HCC; tofacitinib initiated 4 weeks after AAV, euthanized at 24 weeks",inhibited
B1,STAT3 phosphorylation (pSTAT3 Y705) by western blotting,[1],robust elevated phosphorylation
B2,BrdU signal,[2],strong BrdU signals
